In publication PMC10343887, “Structural Optimization of BIPPO Analogs as Potent Antimalarials” (Molecules, 2023):

Columns and labels:
P. falciparum = experiment: Antimalarial screening against asexual blood stage P. falciparum; assay type: cell-based, Plasmodium falciparum; conditions: for IC50: Plasmodium falciparum, potency against asexual blood stage of P. falciparum, average values n ≥ 2, s.d. < 0.3, read-out: P. fal pIC50 (converted); for fold decreased antimalarial potency compared to 3 / fold potency decrease compared with 30: P. falciparum; for fold decreased antimalarial potency compared to 3: relative to 3; for fold potency decrease compared with 30: relative to 30
Procedure: Previously, Howard et al. reported (sub)micromolar activity against P. falciparum for a series of BIPPO analogs with benzyl substituents. To further understand the structure–activity relationship (SAR) of this interesting scaffold, close analogs of 3 with substituents at R^1–R^4 positions were tested against P. falciparum and human MRC-5 cells as the control for non-specific toxicity (Table 1).
The assay for antimalarial activity was carried out as described in detail in Pereira et al..

[1] = Non-specific toxicity control on human MRC-5 cells; assay type: cell-based; conditions: human MRC-5 cells; average values n ≥ 2, s.d. < 0.3; read-out: MRC-5 pIC50 (converted)

IC50 (P. falciparum) [µM] | SMILES | IC50 [1] [µM] | fold decreased antimalarial potency compared to 3 (P. falciparum) | fold potency decrease compared with 30 (P. falciparum)
> 63.1 | CC(C)c1nn(C)c2c(=O)[nH]c(C34CC5CC(CC(C5)C3)C4)nc12 [38a, 5-(Adamantan-1-yl)-3-isopropyl-1-methyl-1,6-dihydro-7H-pyrazolo[4,3-d]pyrimidin-7-one] | > 63.1 |  | more than 400 fold
2.51 | CC(C)c1c2nc(C34CC5CC(CC(C5)C3)C4)[nH]c(=O)c2nn1C [38b, 5-(Adamantan-1-yl)-3-isopropyl-2-methyl-2,6-dihydro-7H-pyrazolo[4,3-d]pyrimidin-7-one] | > 63.1 |  | more than 15 fold
1.58 | CC(C)(C)c1n[nH]c2c(=O)[nH]c(Cc3ccccc3)nc12 [46a, 5-Benzyl-3-(tert-butyl)-1,6-dihydro-7H-pyrazolo[4,3-d]pyrimidin-7-one] | 39.8 |  | 
1.58 | O=c1[nH]c(Cc2ccccc2)nc2c(C3CCCC3)n[nH]c12 [46b, 5-Benzyl-3-cyclopentyl-1,6-dihydro-7H-pyrazolo[4,3-d]pyrimidin-7-one] | > 63.1 |  | 

Further lines, the compound ahead of its results:

SMILES | IC50 (P. falciparum) [µM] | IC50 [1] [µM] | fold decreased antimalarial potency compared to 3 (P. falciparum) | fold potency decrease compared with 30 (P. falciparum)
CC(C)c1n[nH]c2c(=O)[nH]c(C(C)c3ccccc3)nc12 (racemic) [compound 13, (racemic)-3-Isopropyl-5-(1-phenylethyl)-1,6-dihydro-7H-pyrazolo[4,3-d]pyrimidin-7-one] | 1.26 | > 63.1 |  | 
COC(c1ccccc1)c1nc2c(C(C)C)n[nH]c2c(=O)[nH]1 (racemic) [compound 15, (racemic)-3-Isopropyl-5-(methoxy(phenyl)methyl)-1,6-dihydro-7H-pyrazolo[4,3-d]pyrimidin-7-one] | 7.94 | > 63.1 | 5- to 25 fold | 
CC(C)c1nn(C)c2c(=O)[nH]c(Cc3ccccc3)nc12 [37a, 5-Benzyl-3-isopropyl-1-methyl-1,6-dihydro-7H-pyrazolo[4,3-d]pyrimidin-7-one] | 10 | > 63.1 |  | 
CC(C)c1c2nc(Cc3ccccc3)[nH]c(=O)c2nn1C [37b, 5-Benzyl-3-isopropyl-2-methyl-2,6-dihydro-7H-pyrazolo[4,3-d]pyrimidin-7-one] | 5.01 | > 63.1 |  | 
CC(C)c1n[nH]c2c(=O)[nH]c(Cc3ccccc3)nc12 [compound 3, 5-Benzyl-3-isopropyl-1,6-dihydro-7H-pyrazolo[4,3-d]pyrimidin-7-one] | 1.26 | > 63.1 |  | 
CC(C)c1n[nH]c2c(=O)[nH]c(Cc3ccncc3)nc12 [compound 4, 3-Isopropyl-5-(pyridin-4-ylmethyl)-1,6-dihydro-7H-pyrazolo[4,3-d]pyrimidin-7-one] | 7.94 | > 63.1 | six | 
CC(C)c1n[nH]c2c(=O)[nH]c(-c3ccccc3)nc12 [compound 6, 3-Isopropyl-5-phenyl-1,6-dihydro-7H-pyrazolo[4,3-d]pyrimidin-7-one] | 31.6 | > 63.1 | 5- to 25 fold | 
CC(C)c1n[nH]c2c(=O)[nH]c(-c3ccc(N4CCN(C)CC4)cc3)nc12 [compound 7, 3-Isopropyl-5-(4-(4-methylpiperazin-1-yl)phenyl)-1,6-dihydro-7H-pyrazolo[4,3-d]pyrimidin-7-one] | 7.94 | > 39.8 |  | 
CC(C)c1n[nH]c2c(=O)[nH]c(-c3ccc(N4CCCCC4)cc3)nc12 [compound 8, 3-Isopropyl-5-(4-(piperidin-1-yl)phenyl)-1,6-dihydro-7H-pyrazolo[4,3-d]pyrimidin-7-one] | > 50.1 | > 63.1 |  | 
CC(C)c1n[nH]c2c(=O)[nH]c(-c3cscn3)nc12 [compound 9, 3-Isopropyl-5-(thiazol-4-yl)-1,6-dihydro-7H-pyrazolo[4,3-d]pyrimidin-7-one] | > 63.1 | > 63.1 |  | 
CC(C)c1n[nH]c2c(=O)[nH]c([C@H]3CC[C@@H](O)CC3)nc12 [compound 26, cis-5-(4-Hydroxycyclohexyl)-3-isopropyl-1,6-dihydro-7H-pyrazolo[4,3-d]pyrimidin-7-one] |  | > 63.1 |  | 
